What follows are compounds tested against Human factor D (Homo sapiens (Human), UniProt P00746) (assay: Human Factor D Assay). Conditions: Human factor D 80 nM, substrate Z-L-Lys-SBzl and DTNB 100 μM each, pH 7.5.
Chain of Human factor D (P00746 26-253): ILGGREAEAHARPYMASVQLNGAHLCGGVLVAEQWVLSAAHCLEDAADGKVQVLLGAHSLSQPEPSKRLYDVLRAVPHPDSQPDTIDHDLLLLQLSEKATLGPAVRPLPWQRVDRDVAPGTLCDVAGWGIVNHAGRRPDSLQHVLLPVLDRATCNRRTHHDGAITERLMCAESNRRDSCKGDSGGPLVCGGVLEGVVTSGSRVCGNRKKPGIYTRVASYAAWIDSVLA
Type: biochemical
Method: Example 14. Human Factor D Assay
Human factor D (purified from human serum, Complement Technology, Inc.) at 80 nM final concentration is incubated with test compound at various concentrations for 5 minutes at room temperature in 50 mM Tris, 1M NaCl, pH 7.5. A synthetic substrate Z-L-Lys-SBzl and DTNB (Ellman's reagent) are added to final concentrations of 100 μM each. The increase in color is recorded at OD405 nm in a microplate in kinetic mode over 30 minutes with 30 second time points in a spectrofluorimeter. IC50 values are calculated by non-linear regression from the percentage of inhibition of complement factor D activity as a function of test compound concentration.
In the case of `CC(=O)c1cn(CC(=O)N2C[C@H](F)C[C@H]2C(=O)NCc2cccc(Cl)c2F)c2cc(C(=O)NS(=O)(=O)C3CC3)ccc12` [Compound 48, 3-acetyl-1-(2-((2S,4R)-2-(3-chloro-2-fluorobenzylcarbamoyl)-4-fluoropyrrolidin-1-yl)-2-oxoethyl)-N-(cyclopropylsulfonyl)-1H-indole-6-carboxamide], the IC50 is reported as < 1000 nM.
For `CC(=O)c1cn(CC(=O)N2[C@@H]3C[C@@H]3C[C@H]2C(=O)N[C@H](C)c2cccc(Cl)c2F)c2ccc(NC(=O)NC3CC3)cc12` [Compound 5, (1R,3S,5R)-2-(2-(3-acetyl-5-(3-cyclopropylureido)-1H-indol-1-yl)acetyl)-N-((R)-1-(3-chloro-2-fluorophenyl)ethyl)-2-azabicyclo[3.1.0]hexane-3-carboxamide], the IC50 was < 1000 nM.
For `NC(=O)c1nn(CC(=O)N2[C@@H]3C[C@@H]3C[C@H]2C(=O)Nc2cccc(Br)n2)c2ccc(NC(=O)N3CCCC(F)(F)C3)cc12` [Compound 34, 1-(2-((1R,3S,5R)-3-(6-bromopyridin-2-ylcarbamoyl)-2-azabicyclo[3.1.0]hexan-2-yl)-2-oxoethyl)-5-(3,3-difluoropiperidine-1-carboxamido)-1H-indazole-3-carboxamide], the IC50 was < 1000 nM.
With `CC(=O)c1cn(CC(=O)N2C[C@H](F)C[C@H]2C(=O)NCc2cccc(Cl)c2F)c2ccc(NC(=O)NC3(C)CC3)cc12` [Compound 4, (2S,4R)-1-(2-(3-acetyl-5-(3-(1-methylcyclopropyl)ureido)-1H-indol-1-yl)acetyl)-N-(3-chloro-2-fluorobenzyl)-4-fluoropyrrolidine-2-carboxamide] the IC50 was < 1000 nM.
For `CC(=O)c1cn(CC(=O)N2C[C@H](F)C[C@H]2C(=O)NCc2cccc(Cl)c2F)c2ccc(NC(=O)N3CCCC(F)(F)C3)cc12` [Compound 16, N-(3-acetyl-1-(2-((2S,4R)-2-(3-chloro-2-fluorobenzylcarbamoyl)-4-fluoropyrrolidin-1-yl)-2-oxoethyl)-1H-indol-5-yl)-3,3-difluoropiperidine-1-carboxamide], the IC50 was < 1000 nM.
With `CC(=O)c1cn(CC(=O)N2C[C@H](F)C[C@H]2C(=O)NCc2cccc(Cl)c2F)c2ccc(NC(=O)NC(C)C)cc12` [Compound 6, (2S,4R)-1-(2-(3-acetyl-5-(3-isopropylureido)-1H-indol-1-yl)acetyl)-N-(3-chloro-2-fluorobenzyl)-4-fluoropyrrolidine-2-carboxamide] the IC50 was < 1000 nM.
In the case of `CC(=O)c1cn(CC(=O)N2C[C@H](F)C[C@H]2C(=O)NCc2cccc(Cl)c2F)c2cc(C(=O)NS(=O)(=O)c3ccccc3)ccc12` [Compound 53], the IC50 is reported as < 1000 nM.
For `CC(=O)c1cn(CC(=O)N2C[C@H](F)C[C@H]2C(=O)NCc2cccc(Cl)c2F)c2cc(C(=O)N3CCC(CN)C3)ccc12` (stereo partly drawn) [Compound 42, (2S,4R)-1-(2-(3-acetyl-6-(3-(aminomethyl)pyrrolidine-1-carbonyl)-1H-indol-1-yl)acetyl)-N-(3-chloro-2-fluorobenzyl)-4-fluoropyrrolidine-2-carboxamide], the IC50 was < 1000 nM.
`NC(=O)c1nn(CC(=O)N2C[C@H](F)C[C@H]2C(=O)Nc2cccc(-c3ccccc3Cl)c2F)c2ccc(NC(=O)N3CCCC(F)(F)C3)cc12` [Compound 24, 1-(2-((2S,4R)-2-(2′-chloro-2-fluorobiphenyl-3-ylcarbamoyl)-4-fluoropyrrolidin-1-yl)-2-oxoethyl)-5-(3,3-difluoropiperidine-1-carboxamido)-1H-indazole-3-carboxamide] was tested, and the IC50 was < 1000 nM.
`CC(=O)c1cn(CC(=O)N2C[C@H](F)C[C@H]2C(=O)Nc2cccc(-c3ccccc3Cl)c2F)c2ccc(NC(=O)C3CCC(F)(F)C3)cc12` (stereo partly drawn) [Compound 35, (2S,4R)-1-(2-(3-acetyl-5-(3,3-difluorocyclopentanecarboxamido)-1H-indol-1-yl)acetyl)-N-(2′-chloro-2-fluorobiphenyl-3-yl)-4-fluoropyrrolidine-2-carboxamide] was tested, and the IC50 was < 1000 nM.
In the case of `CC(=O)c1cn(CC(=O)N2C[C@H](F)C[C@H]2C(=O)NCc2cccc(Cl)c2F)c2cc(C(=O)N[C@H]3CCNC3)ccc12` [Compound 45, 3-acetyl-1-(2-((2S,4R)-2-(3-chloro-2-fluorobenzylcarbamoyl)-4-fluoropyrrolidin-1-yl)-2-oxoethyl)-N-((S)-pyrrolidin-3-yl)-1H-indole-6-carboxamide], the IC50 is reported as < 1000 nM.
For `CC(=O)c1cn(CC(=O)N2C[C@H](F)C[C@H]2C(=O)NCc2cccc(Cl)c2F)c2cc(NC(=O)OC(C)(C)C)ccc12` [Compound 37, tert-butyl 3-acetyl-1-(2-((2S,4R)-2-(3-chloro-2-fluorobenzylcarbamoyl)-4-fluoropyrrolidin-1-yl)-2-oxoethyl)-1H-indol-6-ylcarbamate], the IC50 was < 1000 nM.
`COC(=O)C1CCN(C(=O)c2ccc3c(C(C)=O)cn(CC(=O)N4C[C@H](F)C[C@H]4C(=O)NCc4cccc(Cl)c4F)c3c2)C1` (stereo partly drawn) [Compound 51, methyl 1-(3-acetyl-1-(2-((2S,4R)-2-(3-chloro-2-fluorobenzylcarbamoyl)-4-fluoropyrrolidin-1-yl)-2-oxoethyl)-1H-indole-6-carbonyl)pyrrolidine-3-carboxylate] was tested, and the IC50 was < 1000 nM.
In the case of `CC(=O)c1cn(CC(=O)N2C[C@H](F)C[C@H]2C(=O)NCc2cccc(Cl)c2F)c2ccc(C(=O)N3CC4CCC3C4)cc12` (stereo partly drawn) [Compound 39, (2S,4R)-1-(2-(3-acetyl-5-(2-azabicyclo[2.2.1]heptane-2-carbonyl)-1H-indol-1-yl)acetyl)-N-(3-chloro-2-fluorobenzyl)-4-fluoropyrrolidine-2-carboxamide], the IC50 is reported as < 1000 nM.
With `CC(=O)c1cn(CC(=O)N2C[C@H](F)C[C@H]2C(=O)NCc2cccc(Cl)c2F)c2ccc(NC(=O)NCc3ccon3)cc12` [Compound 7, (2S,4R)-1-(2-(3-acetyl-5-(3-(isoxazol-3-ylmethyl)ureido)-1H-indol-1-yl)acetyl)-N-(3-chloro-2-fluorobenzyl)-4-fluoropyrrolidine-2-carboxamide] the IC50 was < 1000 nM.
`NC(=O)c1nn(CC(=O)N2C[C@H](F)C[C@H]2C(=O)Nc2cccc(-c3ccccc3Cl)c2F)c2ccc(NC(=O)N3CCC(F)(F)CC3)cc12` [Compound 31, 1-(2-((2S,4R)-2-(2′-chloro-2-fluorobiphenyl-3-ylcarbamoyl)-4-fluoropyrrolidin-1-yl)-2-oxoethyl)-5-(4,4-difluoropiperidine-1-carboxamido)-1H-indazole-3-carboxamide] was tested, and the IC50 was < 1000 nM.
In the case of `CC(=O)c1cn(CC(=O)N2C[C@H](F)C[C@H]2C(=O)NCc2cccc(Cl)c2F)c2cc(C(=O)N3CCC(C(=O)O)C3)ccc12` (stereo partly drawn) [Compound 52, 1-(3-acetyl-1-(2-((2S,4R)-2(3-chloro-2-fluorobenzylcarbamoyl)-4-fluoropyrrolidin-1-yl)-2-oxoethyl)-1H-indole-6-carbonyl) pyrrolidine-3-carboxylic acid], the IC50 is reported as < 1000 nM.
In the case of `CC(=O)c1cn(CC(=O)N2C[C@H](F)C[C@H]2C(=O)NCc2cccc(Cl)c2F)c2ccc(C(=O)N3CC=C(B(O)O)CC3)cc12` [Compound 38, 1-(3-acetyl-1-(2-((2S,4R)-2-(3-chloro-2-fluorobenzylcarbamoyl)-4-fluoropyrrolidin-1-yl)-2-oxoethyl)-1H-indole-5-carbonyl)-1,2,3,6-tetrahydropyridin-4-ylboronic acid], the IC50 is reported as < 1000 nM.
`NC(=O)c1nn(CC(=O)N2C[C@H](F)C[C@H]2C(=O)Nc2cccc(OC(F)(F)F)c2F)c2ccc(NC(=O)N3CCCC(F)(F)C3)cc12` [Compound 26, 5-(3,3-difluoropiperidine-1-carboxamido)-1-(2-((2S,4R)-4-fluoro-2-(2-fluoro-3-(trifluoromethoxy)phenylcarbamoyl)pyrrolidin-1-yl)-2-oxoethyl)-1H-indazole-3-carboxaide] was tested, and the IC50 was < 1000 nM.
With `NC(=O)c1nn(CC(=O)N2[C@@H]3C[C@@H]3C[C@H]2C(=O)Nc2cccc(-c3ccccc3Cl)c2F)c2ccc(NC(=O)N3CCCC(F)(F)C3)cc12` [Compound 28, 1-(2-((1R,3S,5R)-3-(2′-chloro-2-fluorobiphenyl-3-ylcarbamoyl)-2-azabicyclo[3.1.0]hexan-2-yl)-2-oxoethyl)-5-(3,3-difluoropiperidine-1-carboxamido)-1H-indazole-3-carboxamide] the IC50 was < 1000 nM.
`CC(=O)c1cn(CC(=O)N2C[C@H](F)C[C@H]2C(=O)NCc2cccc(Cl)c2F)c2ccc(NC(=O)N3CCC(F)(F)C3)cc12` [Compound 13] was tested, and the IC50 was < 1000 nM.
In the case of `CC(=O)c1cn(CC(=O)N2C[C@H](F)C[C@H]2C(=O)NCc2cccc(Cl)c2F)c2ccc(NC(=O)NCc3ncccn3)cc12` [Compound 8, (2S,4R)-1-(2-(3-acetyl-5-(3-(pyrimidin-2-ylmethyl)ureido)-1H-indol-1-yl)acetyl)-N-(3-chloro-2-fluorobenzyl)-4-fluoropyrrolidine-2-carboxamide], the IC50 is reported as < 1000 nM.
`NC(=O)c1nn(CC(=O)N2C[C@H](F)C[C@H]2C(=O)Nc2cccc(-c3ccccc3Cl)c2F)c2ccc(NC(=O)NCc3ncccn3)cc12` [Compound 32, 1-(2-((2S,4R)-2-(2′-chloro-2-fluorobiphenyl-3-ylcarbamoyl)-4-fluoropyrrolidin-1-yl)-2-oxoethyl)-5-(3-(pyrimidin-2-ylmethyl)ureido)-1H-indazole-3-carboxamide] was tested, and the IC50 was < 1000 nM.
With `CC(=O)c1cn(CC(=O)N2[C@@H]3C[C@@H]3C[C@H]2C(=O)Nc2cccc(OC(F)(F)F)c2F)c2ccc(NC(=O)NC3CC3)cc12` [Compound 11, (1R,3S,5R)-2-(2-(3-acetyl-5-(3-cyclopropylureido)-1H-indol-1-yl)acetyl)-N-(2-fluoro-3-(trifluoromethoxy)phenyl)-2-azabicyclo[3.1.0]hexane-3-carboxamide] the IC50 was < 1000 nM.
`CC(=O)c1cn(CC(=O)N2C[C@H](F)C[C@H]2C(=O)NCc2cccc(Cl)c2F)c2cc(C(=O)N[C@H]3CCN(C(C)=O)C3)ccc12` [Compound 46, 3-acetyl-N-((S)-1-acetylpyrrolidin-3-yl)-1-(2-((2S,4R)-2-(3-chloro-2-fluorobenzylcarbamoyl)-4-fluoropyrrolidin-1-yl)-2-oxoethyl)-1H-indole-6-carboxamide] was tested, and the IC50 was < 1000 nM.
